Assay: logP by HPLC on reversed-phase columns (EEC Directive 79/831 Annex V.A8)
Type: physicochemical
Conditions: for log p [a]: pH 2.3
Protocol: The logP values were measured in accordance with EEC Directive 79/831 Annex V.A8 by HPLC (High Performance Liquid Chromatography) on reversed-phase columns (C 18) using the methods below:
[a] The determination was carried out in the acidic range at pH 2.3 using the mobile phases 0.1% aqueous phosphoric acid and acetronitrile linear gradient from 10% acetonitrile to 95% acetronitrile. [b] The LC-MS determination in the acid range was carried out at pH 2.7 using the mobile phases 0.1% aqueous formic acid and acetonitrile (contains 0.1% formic acid) linear gradient from 10% acetonitrile to 95% acetonitrile. [c] The LC-MS determination in the neutral range was carried out at pH 7.8 using the mobile phases 0.001 molar aqueous ammonium bicarbonate solution and acetonitrile linear gradient from 10% acetonitrile to 95% acetonitrile.

Row | Structure (SMILES) | log p [b] (pH 2.7) | log p [c] (pH 7.8) | other results
1 | C=C1COC(c2cccc(Nc3ncc(Br)c(NC4CC4)n3)c2)OC1 [Example 81] | 2.1 | 3.27 | –
2 | Ic1cnc(Nc2cccc(C3OCCO3)c2)nc1NC1CC1 [Example 49] | 1.75 | 3.02 | –
3 | ClCC1COC(c2cccc(Nc3ncc(Cl)c(NC4CC4)n3)c2)O1 (centres unmarked) [Example 33] | 2.19 | – | log p [a]: 1.85
4 | CC(C)OC(OC(C)C)c1cccc(Nc2ncc(Cl)c(NC3CC3)n2)c1 [Example 65] | – | 4.44[c]; | –
5 | Clc1cnc(Nc2cccc(C3OCC(CN4CCCC4)O3)c2)nc1NC1CC1 (centres unmarked) [Example 43] | 0.99[b] | – | –
6 | Clc1cnc(Nc2cccc(C3OCC(C4CC4)CO3)c2)nc1NC1CC1 (centres unmarked) [Example 93] | 2.6 | 3.91 | –
7 | CC1(C)COC(C)(c2cccc(Nc3ncc(C(F)(F)F)c(NC4CC4)n3)c2)OC1 [Example 73] | 4.32 | 4.7 | –
8 | COCC1COC(c2cccc(Nc3ncc(Br)c(NC4CC4C)n3)c2)O1 (centres unmarked) [Example 132] | – | – | log p (pH 2.7): 2.19; log p (pH 7.8): 3.52
9 | C#CCNc1nc(Nc2cccc(C3OCCO3)c2)ncc1Cl [Example 134] | – | – | log p (pH 2.7): 1.58; log p (pH 7.8): 2.37
10 | CC(C)Nc1nc(Nc2cccc(C3OCCO3)c2)ncc1Cl [Example 148] | – | – | log p (pH 2.7): 1.7; log p (pH 7.8): 3.04
11 | Brc1cnc(Nc2cccc(C3OCCCO3)c2)nc1NC1CCC1 [Example 151] | – | – | log p (pH 2.7): 2.11; log p (pH 7.8): 3.54
12 | OCC1CSC(c2cccc(Nc3ncc(C(F)(F)F)c(NC4CC4)n3)c2)S1 (centres unmarked) [Example 168] | – | – | log p (pH 2.7): 2.65; log p (pH 7.8): 3.03
13 | CC1(c2cccc(Nc3ncc(C(F)(F)F)c(NC4CC4)n3)c2)OCCO1 [Example 11] | 3.03 | 3.46 | –
14 | CCOCCOCC1COC(c2cccc(Nc3ncc(Cl)c(NC4CC4)n3)c2)O1 (centres unmarked) [Example 154] | – | – | log p (pH 2.7): 2.05; log p (pH 7.8): 3.13
15 | CC1COC(C)(c2cccc(Nc3ncc(C(F)(F)F)c(NC4CC4)n3)c2)O1 (centres unmarked) [Example 72] | 3.52 | 3.94 | –
16 | COCC(C)Nc1nc(Nc2cccc(C3OCCCO3)c2)ncc1Cl (centres unmarked) [Example 56] | 1.69[b] | 2.92 | log p [a]: 1.46
17 | SCCOC(OCCS)c1cccc(Nc2ncc(Cl)c(NC3CC3)n2)c1 [Example 4] | 1.36 | 2.03 | –
18 | Clc1cnc(Nc2cccc(C3OC4COCC4O3)c2)nc1NC1CC1 (centres unmarked) [Example 32] | 1.55[b] | – | –
19 | COCC1COC(c2cccc(Nc3ncc(C(F)(F)F)c(NC4CCC4)n3)c2)O1 (centres unmarked) [Example 106] | 3.22 | 3.77 | –

Row | Structure (SMILES) | log p [b] (pH 2.7) | log p [c] (pH 7.8) | other results
20 | FC(F)(F)CNc1nc(Nc2cccc(C3OCCCO3)c2)ncc1Cl [Example 53] | 2.48[b] | 2.86 | log p [a]: 2.08
21 | O=Cc1cccc(Nc2ncc(Cl)c(NCC(F)(F)F)n2)c1 [3-({5-Chloro-4-[(2,2,2-trifluoroethyl)amino]pyrimidin-2-yl}amino)benzenecarbaldehyde] | – | – | chromatographic logP (pH 2.7, logP (pH 2.7)): 2.46
22 | Cc1cnc(Nc2cccc(C3OCCO3)c2)nc1NC1CC1 [Example 58] | 1.21[b] | 2.25 | log p [a]: 1.21
23 | C=CCOCC1COC(c2cccc(Nc3ncc(C(F)(F)F)c(NC4CCC4)n3)c2)O1 (centres unmarked) [Example 109] | 3.84 | 4.35 | –
24 | Clc1cnc(Nc2cccc(C3OC4CCCCC4O3)c2)nc1NC1CC1 (centres unmarked) [Example 44] | 2.65 | 3.99 | –
25 | CCC1COC(c2cccc(Nc3ncc(Br)c(NC4CC4)n3)c2)O1 (centres unmarked) [Example 150] | – | – | log p (pH 7.8): 3.68[c]
26 | CC1CC1Nc1nc(Nc2cccc(C=O)c2)ncc1Cl (centres unmarked) [3-((5-Chloro-4-[(2-methylcyclopropyl)amino]pyrimidin-2-yl)amino)benzaldehyde] | – | – | chromatographic logP (pH 2.3, logP (pH 2.3)): 2.11
27 | Brc1cnc(Nc2ccc(C3OCCCO3)cc2)nc1NC1CCC1 [Example 77] | 2.2 | 3.61 | –
28 | C=CCOCC1COC(c2cccc(Nc3ncc(Cl)c(NC4CCC4)n3)c2)O1 (centres unmarked) [Example 116] | 2.59 | 4.07 | –
29 | C=CCOCC1COC(c2cccc(Nc3ncc(Br)c(NC4CCC4)n3)c2)O1 (centres unmarked) [Example 117] | 2.77 | 4.24 | –
30 | C#CCNc1nc(Nc2cccc(C3OCCCO3)c2)ncc1Cl [Example 54] | 1.67[b] | 2.48 | log p [a]: 1.38
31 | Fc1cnc(Nc2cccc(C3OCCO3)c2)nc1NC1CC1 [Example 59] | 1.60[b] | 2.28 | log p [a]: 1.14
32 | OCC1CSC(c2cccc(Nc3ncc(Cl)c(NC4CCC4)n3)c2)S1 (centres unmarked) [Example 162] | – | – | log p (pH 2.7): 1.93; log p (pH 7.8): 3.14
33 | Brc1cnc(Nc2cccc(C3OCCO3)c2)nc1NC1CC1 [Example 13] | 1.75 | 2.82 | –
34 | CN(c1nc(Nc2cccc(C=O)c2)ncc1Cl)C1CC1 [3-({5-Chloro-4-[cyclopropyl(methyl)amino]pyrimidin-2-yl}amino)benzenecarbaldehyde] | – | – | chromatographic logP (pH 2.7, logP (pH 2.7)): 2.84
35 | Brc1cnc(Nc2cccc(C3OCC(C4CC4)CO3)c2)nc1NC1CC1 (centres unmarked) [Example 79] | 2.77 | 4.03 | –
36 | OCC1CSC(c2cccc(Nc3ncc(Br)c(NC4CCC4)n3)c2)S1 (centres unmarked) [Example 164] | – | – | log p (pH 2.7): 2.11; log p (pH 7.8): 3.28
37 | Clc1cnc(Nc2cccc(C3OCC(C4CC4)CO3)c2)nc1NC1CCC1 (centres unmarked) [Example 80] | 2.93 | 4.43 | –
38 | Clc1cnc(Nc2cccc(C3OCC4(CCC4)CO3)c2)nc1NC1CC1 [Example 103] | 2.6 | 3.62 | –

Row | Structure (SMILES) | log p [b] (pH 2.7) | log p [c] (pH 7.8) | other results
39 | CC1CSC(c2cccc(Nc3ncc(C(F)(F)F)c(NC4CC4)n3)c2)S1 (centres unmarked) [Example 155] | – | – | log p (pH 2.7): 4.14; log p (pH 7.8): 4.44
40 | CC1CC1Nc1nc(Nc2cccc(C3(C)OCCO3)c2)ncc1Cl (centres unmarked) [Example 76] | 2.32 | 3.67 | –
41 | FC(F)(F)CNc1nc(Nc2cccc(C3OCCO3)c2)ncc1Cl [Example 45] | 2.35 | 2.73 | –
42 | CCCCCCC1COC(c2cccc(Nc3ncc(Cl)c(NC4CC4)n3)c2)O1 (centres unmarked) [Example 38] | 4.14 | 5.29 | –
43 | C=CCOCC1COC(c2cccc(Nc3ncc(C(F)(F)F)c(NC4CC4)n3)c2)O1 (centres unmarked) [Example 108] | 3.35 | 3.79 | –
44 | CCC1COC(c2cccc(Nc3ncc(Cl)c(NC4CC4)n3)c2)O1 (centres unmarked) [Example 7] | 2.29 | 3.48 | –
45 | Fc1ccc(Nc2ncc(Cl)c(NC3CC3)n2)cc1C1OCCO1 [Example 128] | 1.75 | 2.88 | –
46 | Clc1ccc(Nc2ncc(Cl)c(NC3CC3)n2)cc1C1OCCCO1 [Example 62] | 2.44 | 3.47 | –
47 | Clc1cnc(Nc2cccc(C3OCC(CN4CCOCC4)O3)c2)nc1NC1CC1 (centres unmarked) [Example 41] | – | 2.54[c] | –
48 | COc1ccc(OCC2COC(c3cccc(Nc4ncc(Cl)c(NC5CC5)n4)c3)O2)cc1 (centres unmarked) [Example 36] | 2.64 | 3.78 | –
49 | CC1COC(c2cccc(Nc3ncc(Br)c(NC4CC4)n3)c2)O1 (centres unmarked) [Example 84] | 2.03 | 3.25 | –
50 | O=Cc1cccc(Nc2ncc(F)c(NC3CC3)n2)c1 [3-{[4-(Cyclopropylamino)-5-fluoropyrimidin-2-yl]amino}benzenecarbaldehyde] | – | – | chromatographic logP (pH 2.7, logP (pH 2.7)): 1.26
51 | Fc1ccc(Nc2ncc(Cl)c(NC3CC3)n2)cc1C1OCCCO1 [Example 144] | – | – | log p (pH 2.7): 1.87; log p (pH 7.8): 3.02
52 | Brc1cnc(Nc2cccc(C3OCCO3)c2)nc1NC1CCC1 [Example 20] | 2.05 | 3.39 | –
53 | CC1CSC(c2cccc(Nc3ncc(Cl)c(NC4CC4)n3)c2)S1 (centres unmarked) [Example 161] | – | – | log p (pH 2.7): 2.79; log p (pH 7.8): 4.14
54 | C=C1COC(c2cccc(Nc3ncc(Cl)c(NC4CCC4)n3)c2)OC1 [Example 91] | – | 3.73[c] | –
55 | CCCCC1COC(c2cccc(Nc3ncc(Cl)c(NC4CC4)n3)c2)O1 (centres unmarked) [Example 39] | 3.16 | 4.4 | –
56 | CCC1COC(c2cccc(Nc3ncc(C(F)(F)F)c(NC4CCC4)n3)c2)O1 (centres unmarked) [Example 113] | 4.06 | 4.56 | –

— patent publication US20110245249A1, “Heterocyclically Substituted Anilinopyrimidines” (Bayer CropScience AG, priority 2008, published 2011)
